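Exposure lasted 48 hours, with cells grown in 96-well plates and compounds tested at five concentrations. Here, GI50 denotes the concentration required for 50% inhibition of growth.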 The source made the active and inactive calls. No stated cut-off is given here; in the data, active = GI50 up to about 1.1 µM and inactive = higher.
Columns and labels:
Experiment in all cases: inhibition of tumour cell growth, NCI panel, 48 h
SR = system: SR
EKVX = system: EKVX
HOP-92 = system: HOP-92
M14 = system: M14
LOX IMVI = system: LOX IMVI
SK-OV-3 = system: SK-OV-3
SNB-75 = system: SNB-75
HCT-116 = system: HCT-116
XF498 = system: XF498
SF-539 = system: SF-539
OVCAR-4 = system: OVCAR-4
HT-29 = system: HT-29
ACHN = system: ACHN
MOLT-4 = system: MOLT-4
OVCAR-8 = system: OVCAR-8
IGROV-1 = system: IGROV-1
M19-MEL = system: M19-MEL
A549 = system: A549
SK-MEL-28 = system: SK-MEL-28
Malme-3M = system: Malme-3M

Measured: GI50

Cn1nc2ccc3nccc(NCCNCCCl)c3c2n1
inactive: SR > 100 µM | EKVX > 100 µM | HOP-92 > 100 µM | M14 > 100 µM | LOX IMVI > 100 µM | SK-OV-3 > 100 µM | SNB-75 > 100 µM | HCT-116 > 100 µM | XF498 > 100 µM | SF-539 > 100 µM | OVCAR-4 > 100 µM | HT-29 > 100 µM | ACHN > 100 µM | MOLT-4 > 100 µM | OVCAR-8 > 100 µM | IGROV-1 > 100 µM | M19-MEL > 100 µM | A549 > 100 µM | SK-MEL-28 > 100 µM | Malme-3M > 100 µM

— ChEMBL document CHEMBL1201862, “PubChem BioAssay data set” (2004)
